Where “and” joins values, the source holds several entries; their conditions need not be identical. Equal entries are not always repeated. Where two headings read alike, the source gives them in different places. Residues, ends and D or L forms follow the SMILES beside them. *: point of attachment. Myristoyl = CCCCCCCCCCCCCC(=O)*
Experiments:
[1] = system: NHBE cells; assay: PMA+8-Br-cGMP-induced mucin secretion from NHBE cells (ELISA); format: cell-based, human; details: for Mucin secretion level relative to media control: pre- and co-incubation with 100 nM PMA+1 μM 8-Br-cGMP (Results-M-1A/M-3A)
Protocol: Peptide Blocking Studies—NHBE cells were preincubated with either the MANS or the RNS peptide (1-100 μM) for 15 min, and then PMA (100 nM)+8-Br-cGMP (1 μM) or UTP (100 μM) was added, and cells were incubated for an additional 15 min or 2 h. respectively. Mucin secretion was measured by ELISA and experimental results are designated as Results-I-2B-1 and Results-I-2B-2, as follows. […]
Measurement of Mucin Secretion by ELISA—Before collection of “base line” and “test” mucin samples, the accumulated mucus at the apical surface of the cells was removed by washing with phosphate-buffered saline, pH 7.2. To collect the base-line secretion, cells were incubated with medium alone, and secreted mucin in the apical medium was collected and reserved. Cells were rested for 24 h and then exposed to medium containing the selected stimulatory and/or inhibitory reagents (or appropriate controls), after which secreted mucin was collected and reserved as the test sample. Incubation times for the base line and the test were the same but varied depending on the test reagent utilized. Both base line and test secretions were analyzed by ELISA using an antibody capture method as known in the art. See, e.g., Harlow et al., Antibodies: A Laboratory Manual, pp. 570-573, Cold Spring Harbor Laboratory, Cold Spring Harbor, N.Y. (1988). The primary antibody for this assay was 17Q2 (Babco, Richmond, Calif.), a monoclonal antibody that reacts specifically with a carbohydrate epitope on human airway mucins. The ratio of test/base-line mucin, which is similar to a “secretory index”, was used to quantify mucin secretion, allowing each culture dish to serve as its own control and thus, minimizing deviation caused by variability among culture wells. Wright et al., Am. J. Physiol. 271, L854-L861 (1996). Levels of mucin secretion were reported as percentage of the medium control.
MARCKS-related Peptides—Both the myristoylated N-terminal sequence (MANS) and the random N-terminal sequence (RNS) peptides were synthesized at Genemed Synthesis, Inc. (San Francisco, Calif.), then purified by high pressure liquid chromatography (>95% pure), and confirmed by mass spectroscopy with each showing one single peak with an appropriate molecular mass. The MANS peptide consisted of sequence identical to the first 24 amino acids of MARCKS, i.e. the myristoylated N-terminal region that mediates MARCKS insertion into membranes, MA-[…] (SEQ ID NO: 1) (where MA=N-terminal myristate chain). The corresponding control peptide (RNS) contained the same amino acid composition as the MANS but arranged in random order, MA-[…] (SEQ ID NO: 26). The presence of the hydrophobic myristate moiety in these synthetic peptides enhances their permeability to the plasma membranes, enabling the peptides to be taken up readily by cells. To determine the effects of these peptides on mucin secretion, cells were preincubated with the peptides for 15 min prior to addition of secretagogues, and mucin secretion was then measured by ELISA.
Antisense Oligonucleotides—MARCKS antisense oligonucleotide and its corresponding control oligonucleotide were synthesized at Biognostik GmbH (Gottingen, Germany). NHBE cells were treated with 5 μM antisense or control oligonucleotide apically for 3 days (in the presence of 2 μg/ml lipofectin for the first 24 h). Cells were then incubated with secretagogues, and mucin secretion was measured by ELISA. Total RNA and protein were isolated from treated cells. MARCKS mRNA was assessed by Northern hybridization according to conventional procedures using human MARCKS cDNA as a probe. MARCKS protein level was determined by Western blot using purified anti-MARCKS IgG1 (clone 2F12) as the primary detection antibody.
The effect on mucus secretion of a myristoylated peptide containing the first 24 amino acids of the human MARCKS protein (MANS; myristoylated N-terminal sequence; SEQ ID NO: ) was tested. Cultured normal human bronchial epithelial cells as described above were used. […]

[2] = system: U937 cells; assay: Inhibition of lysozyme release from U937 cells; format: cell-based, human; details: for % Inhibition Lysozyme: at 50 μM of test peptide, 100 nM PMA; for Effect on PMA stimulated lysozyme secretion: pre-incubation with 50 to 100 μM (RNS: any time point or concentration tested)
Protocol: U937 is a monocyte-like human cell line which was purchased from American Type Culture Collection (ATCC) Rockville, Md. (catalog #CRL-15932). The cells were maintained in medium consisting of RPMI 1640 with glutamine supplemented with 10% heat inactivated fetal bovine serum (Gibco, Carlsbad, Calif.), 50 IU/mL, penicillin, 50 μg/mL streptomycin at 37° C. in an atmosphere containing 5% CO2. U937 cells were washed and resuspended at 2.5×10^6 cells/mL in phenol red free RPMI-1640 medium (Cellgro, Mediatech Inc.). Aliquots of cells in 15 mL plastic tubes were preincubated with indicated concentrations of test peptides (dissolved in PBS, pH 7.0) for 10 min at 37° C. The cells were then stimulated with 100 nM PMA for 1 hour. The cells were then centrifuged at 400×g for 5 min at 4° C. Lysozyme released from U937 cells was measured using spectrophotometric assay as described previously by Ralph et al., 1976. (Ralph P, Moore M A S, and Nilsson K. Lysozyme synthesis by established human and murine histocytic lymphoma cell lines. J. Exp. Med. 143:1528-33, 1976). Briefly. 100 μL of supernatants were placed in a 96-well microtiter plate and mixed with 100 μL of a Micrococcus lysodeikticus (Sigma-Aldrich) suspension (0.3 mg/mL in 0.1 M sodium phosphate buffer, pH 7.0), incubated for […] at room temperature and decrease in absorbance at 450 nm was measured. Chicken egg white lysozyme (EMD Biosciences) was used as a standard.

[3] = peptide 1 μM, 15 min preincubation, then PMA 100 nM+8-Br-cGMP 1 μM 15 min (Results-I-2B-1)
[4] = peptide 10 μM, 15 min preincubation, then PMA 100 nM+8-Br-cGMP 1 μM 15 min (Results-I-2B-1)
[5] = peptide 100 μM, 15 min preincubation, then PMA 100 nM+8-Br-cGMP 1 μM 15 min (Results-I-2B-1)

## CCCCCCCCCCCCCC(=O)NCC(=O)N[C@@H](C)C(=O)N[C@@H](CCC(N)=O)C(=O)N[C@@H](Cc1ccccc1)C(=O)N[C@@H](CO)C(=O)N[C@@H](CCCCN)C(=O)N[C@H](C(=O)N[C@@H](C)C(=O)N[C@@H](C)C(=O)N[C@@H](CCCCN)C(=O)NCC(=O)N[C@@H](CCC(=O)O)C(=O)N[C@@H](C)C(=O)N[C@@H](C)C(=O)N[C@@H](C)C(=O)N[C@@H](CCC(=O)O)C(=O)N[C@@H](CCCNC(=N)N)C(=O)N1CCC[C@H]1C(=O)NCC(=O)N[C@@H](CCC(=O)O)C(=O)N[C@@H](C)C(=O)N[C@@H](C)C(=O)N[C@H](C(=O)N[C@@H](C)C(=O)O)C(C)C)[C@@H](C)O [MANS peptide] (Myristoyl-GAQFSKTAAKGEAAAERPGEAAVA-OH; C-terminus assumed)
[1]; peptide 1 μM
  Relative mucin secretion level referenced to stimulated level (M-3A-3) as 100%: 90%
  Mucin secretion level relative to media control: 171%
[1]; [3]
  Mucin secretion as % of control: 188%
[1]; peptide 10 μM
  Relative mucin secretion level referenced to stimulated level (M-3A-3) as 100%: 61%
  Mucin secretion level relative to media control: 117%
[1]; [4]
  Mucin secretion as % of control: 129%
[1]; peptide 100 μM
  Relative mucin secretion level referenced to stimulated level (M-3A-3) as 100%: 16%
  Mucin secretion level relative to media control: 29% and 30%
[1]; [5]
  Mucin secretion as % of control: 35%
[2]
  % Inhibition Lysozyme: 40.8%
  Effect on PMA stimulated lysozyme secretion: significantly attenuated

## CCCCCCCCCCCCCC(=O)NCC(=O)N[C@H](C(=O)N[C@@H](C)C(=O)N1CCC[C@H]1C(=O)N[C@@H](C)C(=O)N[C@@H](C)C(=O)N[C@@H](CCC(=O)O)C(=O)NCC(=O)N[C@@H](C)C(=O)NCC(=O)N[C@@H](C)C(=O)N[C@@H](CCC(=O)O)C(=O)N[C@H](C(=O)N[C@@H](CCCCN)C(=O)N[C@@H](CCCNC(=N)N)C(=O)N[C@@H](C)C(=O)N[C@@H](CO)C(=O)N[C@@H](C)C(=O)N[C@@H](CCC(=O)O)C(=O)N[C@@H](C)C(=O)N[C@@H](CCCCN)C(=O)N[C@@H](CCC(N)=O)C(=O)N[C@@H](C)C(=O)N[C@@H](Cc1ccccc1)C(=O)O)C(C)C)[C@@H](C)O [RNS peptide, reference compound] (Myristoyl-GTAPAAEGAGAEVKRASAEAKQAF-OH; C-terminus assumed)
[1]; [3]
  Mucin secretion as % of control: 216%
[1]; [4]
  Mucin secretion as % of control: 208%
[1]; [5]
  Mucin secretion as % of control: 206%
[2]
  % Inhibition Lysozyme: 0%
  Effect on PMA stimulated lysozyme secretion: did not affect

## CCCCCCCCCCCCCC(=O)NCC(=O)N[C@@H](C)C(=O)N[C@@H](CCC(N)=O)C(=O)N[C@@H](Cc1ccccc1)C(=O)N[C@@H](CO)C(=O)N[C@@H](CCCCN)C(=O)N[C@H](C(=O)N[C@@H](C)C(=O)N[C@@H](C)C(=O)N[C@@H](CCCCN)C(=O)NCC(=O)N[C@@H](CCC(=O)O)C(=O)O)[C@@H](C)O [SEQ ID NO: 13, N-myristoyl-GAQFSKTAAKGE] (Myristoyl-GAQFSKTAAKGE-OH; C-terminus assumed)
[2]
  % Inhibition Lysozyme: 85.2%

## CCCCCCCCCCCCCC(=O)NCC(=O)N[C@@H](C)C(=O)N[C@@H](CCC(N)=O)C(=O)N[C@@H](Cc1ccccc1)C(=O)N[C@@H](CO)C(=O)N[C@@H](CCCCN)C(=O)N[C@H](C(=O)N[C@@H](C)C(=O)N[C@@H](C)C(=O)N[C@@H](CCCCN)C(=O)O)[C@@H](C)O [SEQ ID NO: 15, N-myristoyl-GAQFSKTAAK] (Myristoyl-GAQFSKTAAK-OH; C-terminus assumed)
[2]
  % Inhibition Lysozyme: 56.6%

## C[C@@](O)(/C=C/[C@H]1CC=CC(=O)O1)[C@@H](C[C@@H](O)\C=C/C=C\C=C\CO)OP(=O)(O)O [fostriecin]
[1]; Homo sapiens, NHBE, inhibitor 1 nM, 15 min preincubation, then PMA 100 nM+8-Br-cGMP 1 μM 15 min, read-out: Mucin secretion as % of control
  activity at 0.001 µM: 198%
[1]; Homo sapiens, NHBE, inhibitor 10 nM, 15 min preincubation, then PMA 100 nM+8-Br-cGMP 1 μM 15 min, read-out: Mucin secretion as % of control
  activity at 0.01 µM: 182%
[1]; Homo sapiens, NHBE, inhibitor 100 nM, 15 min preincubation, then PMA 100 nM+8-Br-cGMP 1 μM 15 min, read-out: Mucin secretion as % of control
  activity at 0.1 µM: 170%
[1]; Homo sapiens, NHBE, inhibitor 500 nM, 15 min preincubation, then PMA 100 nM+8-Br-cGMP 1 μM 15 min, read-out: Mucin secretion as % of control
  activity at 0.5 µM: 134%

## C=C1[C@@H](O)[C@@H]2O[C@]3(CC[C@H](/C=C/[C@@H](C)[C@@H]4CC(C)=C[C@@]5(O[C@H](C[C@@](C)(O)C(=O)O)CC[C@H]5O)O4)O3)CC[C@H]2O[C@@H]1[C@@H](O)C[C@H](C)[C@H]1O[C@@]2(CCCCO2)CC[C@H]1C [okadaic acid]
[1]; Homo sapiens, NHBE, read-out: Mucin secretion as % of control, inhibitor 500 nM, 15 min preincubation, then PMA 100 nM+8-Br-cGMP 1 μM 15 min
  activity at 0.5 µM: 157%
[1]; inhibitor 500 nM
  Reduction in mucin secretion level from PMA+8-Br-cGMP-stimulated level: 27%
[1]; inhibitor 500 nM, 15 min preincubation, then PMA 100 nM+8-Br-cGMP 1 μM 15 min
  Mucin secretion as % of control: 155%

## TNF-α
[1]; TNF-α 10 ng/ml 4 h, then PMA 100 nM+8-Br-cGMP 1 μM 15 min
  Mucin secretion level, % of control: 255%

Source: US8501911B2, “Methods of reducing inflammation and mucus hypersecretion” (Biomarck Pharmaceuticals, Ltd, priority 1999, dated 2013)
